Measured values taken from ChEMBL document CHEMBL1201862, “PubChem BioAssay data set” (2004).
Blank lines part the entries; values can stand above or below the molecule they belong to. The source made the active and inactive calls.

Columns and labels:
[1] = IC50 of Artemis nuclease activity blockers – biochemical, fluorescence intensity, dose response (AID 720701); type: functional;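 also: Artemis endonuclease enzyme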
[2] = target: Megakaryocyte-associated tyrosine-protein kinase (Homo sapiens, UniProt P42679); type: functional;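 also: affinity measured as one member of a kinase panel (Navigating the Kinome) against MATK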
[3] = target: Tyrosine-protein kinase JAK2 (Homo sapiens, UniProt O60674); type: functional;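 also: JAK2 tested as one member of a kinase panel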
[4] = target: cGMP-dependent protein kinase 1 (Homo sapiens, UniProt Q13976); type: functional;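 also: value from a kinome panel screen with PRKG1 as the panel member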
Chain of cGMP-dependent protein kinase 1 (Q13976 whole entry): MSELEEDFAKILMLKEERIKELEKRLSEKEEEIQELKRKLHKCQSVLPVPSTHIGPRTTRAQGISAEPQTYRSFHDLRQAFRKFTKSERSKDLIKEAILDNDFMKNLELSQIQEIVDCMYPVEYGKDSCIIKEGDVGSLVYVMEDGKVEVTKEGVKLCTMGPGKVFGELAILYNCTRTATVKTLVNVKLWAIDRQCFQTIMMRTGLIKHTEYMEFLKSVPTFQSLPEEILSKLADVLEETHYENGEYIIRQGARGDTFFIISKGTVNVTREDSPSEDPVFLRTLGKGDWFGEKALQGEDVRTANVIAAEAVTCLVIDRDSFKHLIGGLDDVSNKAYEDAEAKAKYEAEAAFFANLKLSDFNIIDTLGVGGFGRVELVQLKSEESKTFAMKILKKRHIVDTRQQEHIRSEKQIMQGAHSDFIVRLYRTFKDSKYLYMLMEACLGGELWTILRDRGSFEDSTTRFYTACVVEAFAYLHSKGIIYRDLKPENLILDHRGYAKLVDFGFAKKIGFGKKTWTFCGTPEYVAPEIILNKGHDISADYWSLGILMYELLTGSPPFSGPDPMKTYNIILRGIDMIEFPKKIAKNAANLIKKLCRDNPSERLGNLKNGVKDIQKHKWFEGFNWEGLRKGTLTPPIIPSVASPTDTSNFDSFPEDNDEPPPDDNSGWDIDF

[5] = target: Serine/threonine-protein kinase PLK3 (Homo sapiens, UniProt Q9H4B4); type: functional
Chain of Serine/threonine-protein kinase PLK3 (Q9H4B4 whole entry): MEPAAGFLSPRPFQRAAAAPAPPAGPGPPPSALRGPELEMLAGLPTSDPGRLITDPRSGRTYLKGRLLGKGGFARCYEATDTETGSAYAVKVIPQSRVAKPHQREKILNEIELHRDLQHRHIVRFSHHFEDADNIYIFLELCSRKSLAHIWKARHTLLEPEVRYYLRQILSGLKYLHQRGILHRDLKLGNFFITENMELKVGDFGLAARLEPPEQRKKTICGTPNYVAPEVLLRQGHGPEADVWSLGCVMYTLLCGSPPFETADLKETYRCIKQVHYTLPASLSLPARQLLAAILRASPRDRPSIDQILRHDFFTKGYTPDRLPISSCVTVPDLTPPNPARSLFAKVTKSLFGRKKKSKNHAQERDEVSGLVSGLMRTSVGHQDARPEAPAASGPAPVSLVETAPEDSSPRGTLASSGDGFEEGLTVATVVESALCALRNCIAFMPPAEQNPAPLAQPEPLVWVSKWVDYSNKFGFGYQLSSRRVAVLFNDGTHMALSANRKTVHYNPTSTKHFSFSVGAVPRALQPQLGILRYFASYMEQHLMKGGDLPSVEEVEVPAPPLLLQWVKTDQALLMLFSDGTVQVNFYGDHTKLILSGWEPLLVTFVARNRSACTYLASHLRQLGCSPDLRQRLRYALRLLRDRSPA

[6] = target: Serine/threonine-protein kinase D2 (Homo sapiens, UniProt Q9BZL6); type: functional;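 also: measured against PRKD2 as one member of a kinome-wide kinase profiling panel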
[7] = target: Serine/threonine-protein kinase D3 (Homo sapiens, UniProt O94806); type: functional;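 also: determined within a kinase panel screen, with PRKCN as the panel member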
[8] = target: Serine/threonine-protein kinase Chk2 (Homo sapiens, UniProt O96017); type: functional;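 also: CHEK2 entry within a kinome-wide screening panel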
[9] = target: Serine/threonine-protein kinase PAK 4 (Homo sapiens, UniProt O96013); type: functional;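 also: value obtained within a kinome profiling panel in which PAK4 was one of the panel members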
[10] = target: Casein kinase I isoform alpha (Homo sapiens, UniProt P48729); type: functional
[11] = target: Tyrosine-protein kinase JAK3 (Homo sapiens, UniProt P52333); type: functional
[12] = target: Mitogen-activated protein kinase 9 (Homo sapiens, UniProt P45984); type: functional;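 also: value from a kinome panel profiling assay, MAPK9 panel entry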
[13] = target: Receptor-type tyrosine-protein kinase FLT3 (Homo sapiens, UniProt P36888); type: functional;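 also: FLT3 was tested as one member of a kinome-wide kinase panel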
Chain of Receptor-type tyrosine-protein kinase FLT3 (P36888 whole entry): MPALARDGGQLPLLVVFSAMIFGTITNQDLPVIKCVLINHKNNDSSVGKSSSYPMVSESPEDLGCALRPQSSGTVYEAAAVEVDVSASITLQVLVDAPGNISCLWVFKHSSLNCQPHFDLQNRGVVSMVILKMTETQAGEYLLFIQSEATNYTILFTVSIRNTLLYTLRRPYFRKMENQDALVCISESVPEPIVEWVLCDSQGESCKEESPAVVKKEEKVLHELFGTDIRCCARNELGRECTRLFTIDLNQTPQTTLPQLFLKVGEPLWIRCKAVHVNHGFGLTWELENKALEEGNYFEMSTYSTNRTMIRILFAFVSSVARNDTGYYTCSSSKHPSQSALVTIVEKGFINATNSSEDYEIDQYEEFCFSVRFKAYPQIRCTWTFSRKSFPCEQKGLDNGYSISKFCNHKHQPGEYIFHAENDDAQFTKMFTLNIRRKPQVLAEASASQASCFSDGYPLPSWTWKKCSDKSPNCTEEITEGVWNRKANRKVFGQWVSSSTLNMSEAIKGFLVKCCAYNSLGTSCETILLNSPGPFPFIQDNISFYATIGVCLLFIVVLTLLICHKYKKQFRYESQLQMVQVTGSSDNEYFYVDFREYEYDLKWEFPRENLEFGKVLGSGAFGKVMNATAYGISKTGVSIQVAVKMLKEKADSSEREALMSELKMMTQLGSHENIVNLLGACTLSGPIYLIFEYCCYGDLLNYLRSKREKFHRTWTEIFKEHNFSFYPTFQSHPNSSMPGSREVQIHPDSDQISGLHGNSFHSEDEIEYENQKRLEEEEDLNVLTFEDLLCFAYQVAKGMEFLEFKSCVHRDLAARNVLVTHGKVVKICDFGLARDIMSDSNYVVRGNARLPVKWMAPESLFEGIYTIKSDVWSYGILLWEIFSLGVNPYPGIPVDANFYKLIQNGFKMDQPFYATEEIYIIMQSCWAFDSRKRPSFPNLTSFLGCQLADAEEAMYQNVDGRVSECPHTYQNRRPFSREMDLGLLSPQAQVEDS

[14] = target: Tyrosine-protein kinase ABL1 (Homo sapiens, UniProt P00519); type: functional
Chain of Tyrosine-protein kinase ABL1 (P00519 whole entry): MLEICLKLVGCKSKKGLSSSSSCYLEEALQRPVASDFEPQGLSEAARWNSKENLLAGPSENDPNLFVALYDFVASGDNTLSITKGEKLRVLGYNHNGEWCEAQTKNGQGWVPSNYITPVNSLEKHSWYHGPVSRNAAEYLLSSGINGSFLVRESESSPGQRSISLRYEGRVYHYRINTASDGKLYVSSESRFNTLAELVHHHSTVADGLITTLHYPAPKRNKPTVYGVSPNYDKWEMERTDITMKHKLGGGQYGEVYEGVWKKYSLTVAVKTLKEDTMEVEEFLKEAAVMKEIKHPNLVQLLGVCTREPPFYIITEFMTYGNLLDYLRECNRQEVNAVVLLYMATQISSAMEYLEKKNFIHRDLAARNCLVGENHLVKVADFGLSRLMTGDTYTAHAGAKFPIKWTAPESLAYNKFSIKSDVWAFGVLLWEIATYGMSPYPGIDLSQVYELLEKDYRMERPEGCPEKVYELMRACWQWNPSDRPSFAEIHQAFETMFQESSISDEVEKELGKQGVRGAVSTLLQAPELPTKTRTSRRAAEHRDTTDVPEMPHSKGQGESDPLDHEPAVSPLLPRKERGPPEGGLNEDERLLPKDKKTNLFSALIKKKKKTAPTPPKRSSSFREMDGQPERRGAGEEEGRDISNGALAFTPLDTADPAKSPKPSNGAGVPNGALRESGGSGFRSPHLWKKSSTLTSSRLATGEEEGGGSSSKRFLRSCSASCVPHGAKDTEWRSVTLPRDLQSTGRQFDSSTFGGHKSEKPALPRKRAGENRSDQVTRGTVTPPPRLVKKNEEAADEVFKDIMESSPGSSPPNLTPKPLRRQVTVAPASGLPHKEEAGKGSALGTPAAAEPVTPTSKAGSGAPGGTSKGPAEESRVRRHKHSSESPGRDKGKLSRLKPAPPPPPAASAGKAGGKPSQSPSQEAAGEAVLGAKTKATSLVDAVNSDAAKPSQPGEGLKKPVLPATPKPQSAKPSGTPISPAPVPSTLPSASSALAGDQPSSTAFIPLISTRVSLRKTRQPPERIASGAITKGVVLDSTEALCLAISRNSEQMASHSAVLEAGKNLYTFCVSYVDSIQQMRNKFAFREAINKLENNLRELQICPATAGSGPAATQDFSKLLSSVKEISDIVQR

[15] = target: MAP kinase-interacting serine/threonine-protein kinase 2 (Homo sapiens, UniProt Q9HBH9); type: functional
[16] = target: Insulin-like growth factor 1 receptor (Homo sapiens, UniProt P08069); experiment: Navigating the Kinome. Panel member name: IGF1R; type: functional
[17] = target: Serine/threonine-protein kinase Nek4 (Homo sapiens, UniProt P51957); type: functional
[18] = target: Rho-associated protein kinase 1 (Homo sapiens, UniProt Q13464); type: functional;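 also: measured within a broad kinome-wide panel profiling many kinases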
[19] = target: Serine/threonine-protein kinase pim-2 (Homo sapiens, UniProt Q9P1W9); type: functional;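 also: value comes from a broad kinase panel profiling study in which PIM2 was one of the panel members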
[20] = target: 3-phosphoinositide-dependent protein kinase 1 (Homo sapiens, UniProt O15530); type: functional;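 also: value comes from the Navigating the Kinome panel, PDPK1 member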
Chain of 3-phosphoinositide-dependent protein kinase 1 (O15530 whole entry): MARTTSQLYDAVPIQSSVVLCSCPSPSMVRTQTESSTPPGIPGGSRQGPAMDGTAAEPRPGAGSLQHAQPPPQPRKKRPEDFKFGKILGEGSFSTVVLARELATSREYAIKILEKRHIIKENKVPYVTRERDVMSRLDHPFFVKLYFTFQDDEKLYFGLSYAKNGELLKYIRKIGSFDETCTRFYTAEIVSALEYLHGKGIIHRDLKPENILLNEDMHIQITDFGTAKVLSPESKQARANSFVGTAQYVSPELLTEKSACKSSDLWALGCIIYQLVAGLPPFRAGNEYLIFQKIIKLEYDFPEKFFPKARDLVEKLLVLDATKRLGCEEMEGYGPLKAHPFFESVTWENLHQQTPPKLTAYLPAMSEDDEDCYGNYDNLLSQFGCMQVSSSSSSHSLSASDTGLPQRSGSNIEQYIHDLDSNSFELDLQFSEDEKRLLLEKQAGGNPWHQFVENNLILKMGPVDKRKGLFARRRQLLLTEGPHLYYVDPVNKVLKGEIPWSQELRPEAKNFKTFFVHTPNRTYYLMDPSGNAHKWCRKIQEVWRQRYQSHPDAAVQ

[21] = target: Serine/threonine-protein kinase BRSK1 (Homo sapiens, UniProt Q8TDC3); type: functional;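 also: measured within a kinome-wide kinase panel, with the target listed as KIAA1811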
Chain of Serine/threonine-protein kinase BRSK1 (Q8TDC3 whole entry): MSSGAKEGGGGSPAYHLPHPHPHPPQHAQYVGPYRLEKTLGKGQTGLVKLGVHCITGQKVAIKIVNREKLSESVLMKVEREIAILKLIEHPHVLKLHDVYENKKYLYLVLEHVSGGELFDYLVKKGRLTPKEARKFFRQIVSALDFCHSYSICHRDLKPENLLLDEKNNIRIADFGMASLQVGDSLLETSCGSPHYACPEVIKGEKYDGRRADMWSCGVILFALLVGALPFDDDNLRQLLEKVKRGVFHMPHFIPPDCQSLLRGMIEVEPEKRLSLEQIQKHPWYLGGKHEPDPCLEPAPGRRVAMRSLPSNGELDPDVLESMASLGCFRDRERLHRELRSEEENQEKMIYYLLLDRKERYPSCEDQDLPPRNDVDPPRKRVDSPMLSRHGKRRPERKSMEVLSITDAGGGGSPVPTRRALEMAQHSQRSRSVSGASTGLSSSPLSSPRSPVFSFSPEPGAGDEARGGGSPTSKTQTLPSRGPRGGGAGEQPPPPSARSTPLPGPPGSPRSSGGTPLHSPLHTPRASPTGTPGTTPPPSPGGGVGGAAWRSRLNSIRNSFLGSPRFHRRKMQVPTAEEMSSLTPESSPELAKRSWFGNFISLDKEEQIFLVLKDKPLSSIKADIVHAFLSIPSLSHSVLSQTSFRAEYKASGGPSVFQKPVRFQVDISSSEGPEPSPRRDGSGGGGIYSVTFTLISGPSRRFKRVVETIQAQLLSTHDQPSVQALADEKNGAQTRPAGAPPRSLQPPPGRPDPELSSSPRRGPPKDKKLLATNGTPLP

[22] = target: Serine/threonine-protein kinase 3 (Homo sapiens, UniProt Q13188); type: functional;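 also: measured as one member of a kinome-wide kinase panel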
[23] = target: T1, Mannose-6-phosphate isomerase (Homo sapiens, UniProt P34949); experiment: MPI inhibition at elevated mannose 6-phosphate – biochemical, fluorescence intensity, high mannose 6-phosphate, primary screen (AID 1220)
T1 sequence (P34949 whole entry): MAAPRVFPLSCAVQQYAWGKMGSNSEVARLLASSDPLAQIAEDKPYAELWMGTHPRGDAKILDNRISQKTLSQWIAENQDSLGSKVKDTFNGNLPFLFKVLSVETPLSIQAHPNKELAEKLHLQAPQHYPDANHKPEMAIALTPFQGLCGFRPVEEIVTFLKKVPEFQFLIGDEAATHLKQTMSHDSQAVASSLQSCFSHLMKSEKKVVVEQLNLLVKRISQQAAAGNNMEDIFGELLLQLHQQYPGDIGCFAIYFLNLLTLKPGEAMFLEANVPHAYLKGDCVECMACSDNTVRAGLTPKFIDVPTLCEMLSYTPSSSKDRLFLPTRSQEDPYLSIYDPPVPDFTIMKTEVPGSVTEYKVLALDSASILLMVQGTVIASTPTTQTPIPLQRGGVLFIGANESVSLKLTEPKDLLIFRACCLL

Jurkat = experiment: SAR Analysis of small molecule inhibitors of T-cell specific antigen receptor-induced NF-kB activation in a Jurkat cell line using a luminescence assay. [Related pubchem assays (depositor defined):AID435003, AID435012, AID465]; type: functional, cell-based; settings: Homo sapiens
HeLa = experiment: viability loss in HeLa cells – cell-based, 24 h, cherry-picked samples, cytotoxicity control, dose response (AID 504726); type: functional; settings: Homo sapiens;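 also: potency for cytotoxicity as loss of luminescence signal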
Cytochrome P450 2C9 = Cytochrome P450 2C9 (Homo sapiens, UniProt P11712)

Compound: CC(=O)N(/N=C1\Sc2ccccc2C1=O)c1ccccc1C
IC50 [1]: 7400 nM (active)

Ki [2]: > 2000 nM (inactive) | Ki [3]: > 1580 nM (inactive) | Ki [4]: > 2000 nM (inactive) | Ki [5]: 2000 nM (active) | Ki [6]: > 10000 nM (inactive) | Ki [7]: 2510 nM (active) | Ki [8]: 1260 nM (active) | Ki [9]: > 5010 nM (inactive) | Ki [10]: > 6310 nM (inactive) | Ki [11]: > 1580 nM (inactive) | Ki [12]: > 3980 nM (inactive) | Ki [13]: 2 nM (active) | Ki [14]: > 631 nM (inactive) | Ki [15]: 79.4 nM (active) | Ki [16]: > 2000 nM (inactive) | Ki [17]: > 6310 nM (inactive) | Ki [18]: 794 nM (active) | Ki [19]: 501 nM (active) | Ki [20]: > 3980 nM (inactive) | Ki [21]: 3160 nM (active) | Ki [22]: > 7940 nM (inactive)
Compound: Cc1cccc(NC(=O)Nc2ccc3c(c2)CCc2sc4ncnc(N)c4c2-3)c1

Compound: Cc1ccc(-n2sc3ccccc3c2=O)cc1
IC50 [23]: 22000 nM (active)

Compound: CCCC(=O)NC(c1ccc(Cl)cc1)c1ccc2cccnc2c1O (stereo unspecified)
IC50 (Jurkat): 4130 nM (active)

Compound: N/C(=N\N=C/c1ccc(-c2ccc(O)c(C(=O)O)c2)o1)N[N+](=O)[O-]
AC50 (HeLa): 151000 nM (active) | AC50 (Cytochrome P450 2C9): 7940 nM (inconclusive)
